One experiment deals with NMT2. The experiment is described as follows: MCF7 gene expression of NMT following insulin stimulation or rapamycin treatment (NMT2). It is filed as cell-based. The settings on record: MCF7 cells. The text has this: (§1) Example 9—MCF7 Gene Expression of NMT and WT1 Regulated Genes Following Insulin Stimulation
(§2) NMT1 was also shown to bind to regions of DNA containing BASP1 regulated growth genes. […] This supports our prediction that phosphorylation is the leading PI3K/AKT/mTOR mediated regulatory mechanism responsible for NMT1 modulation.

In the next experiment the test system is NMT1. The experiment is described as follows: MCF7 gene expression of NMT following insulin stimulation or rapamycin treatment (NMT1). It is filed as cell-based. The settings on record: MCF7 cells.
Text: as §1, §2

On to insulin, for which the “NMT2 expression following treatment” value with NMT2 is listed as “little change”. Besides, the “NMT1 expression following treatment” value in the experiment on NMT1 is “little change”.

Source of the values: patent publication US20240230656A1, “Predicting Prognosis and Treatment Response of Breast Cancer Patients Using Expression and Cellular Localization of N-Myristoyltransferase” (Oncodrex Inc., priority 2021, published 2024).
